Laboratory results published in ChEMBL document CHEMBL1201862, “PubChem BioAssay data set” (2004).
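Results reflect a 48-hour exposure of cells in 96-well plates to compound at five concentrations. Abbreviation: GI50, concentration required for 50% inhibition of growth.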 Calls of active or inactive are those of the source. Rule as the data show it: active = GI50 up to about 1.1 µM and inactive = higher.

Experiments:
Assay in all cases: growth of human tumour cells (NCI), 48 h
HOP-92 = tested on: HOP-92
Malme-3M = tested on: Malme-3M
HCT-116 = tested on: HCT-116
TK-10 = tested on: TK-10
PC-3 = tested on: PC-3
EKVX = tested on: EKVX
HL-60 = tested on: HL-60
RPMI-8226 = tested on: RPMI-8226
MDA-MB-231 = tested on: MDA-MB-231
SK-MEL-5 = tested on: SK-MEL-5
M19-MEL = tested on: M19-MEL
IGROV-1 = tested on: IGROV-1
SF-295 = tested on: SF-295
DLD-1 = tested on: DLD-1
MCF7 = tested on: MCF7
OVCAR-8 = tested on: OVCAR-8
DMS-273 = tested on: DMS-273
NCI-H23 = tested on: NCI-H23
CCRF-CEM = tested on: CCRF-CEM
OVCAR-3 = tested on: OVCAR-3
KM12 = tested on: KM12
HT-29 = tested on: HT-29
XF498 = tested on: XF498
NCI/ADR-RES = tested on: NCI/ADR-RES
MOLT-4 = tested on: MOLT-4
786-0 = tested on: 786-0
SW-620 = tested on: SW-620
COLO 205 = tested on: COLO 205
MDA-MB-435 = tested on: MDA-MB-435
HCC 2998 = tested on: HCC 2998
T47D = tested on: T47D
K562 = tested on: K562
HCT-15 = tested on: HCT-15
ACHN = tested on: ACHN
SK-OV-3 = tested on: SK-OV-3
A549 = tested on: A549
RXF 393 = tested on: RXF 393
UACC-62 = tested on: UACC-62
CAKI-1 = tested on: CAKI-1
HOP-18 = tested on: HOP-18
KM-20L2 = tested on: KM-20L2
MDA-N = tested on: MDA-N
LOX IMVI = tested on: LOX IMVI
NCI-H522 = tested on: NCI-H522
DU-145 = tested on: DU-145
SNB-78 = tested on: SNB-78
OVCAR-4 = tested on: OVCAR-4
SNB-19 = tested on: SNB-19
Hs-578T = tested on: Hs-578T
SK-MEL-2 = tested on: SK-MEL-2
NCI-H460 = tested on: NCI-H460
OVCAR-5 = tested on: OVCAR-5
UO-31 = tested on: UO-31
LXFL 529 = tested on: LXFL 529
SNB-75 = tested on: SNB-75
SN12C = tested on: SN12C
SF-268 = tested on: SF-268
U-251 = tested on: U-251
DMS-114 = tested on: DMS-114
SF-539 = tested on: SF-539
SR = tested on: SR
SK-MEL-28 = tested on: SK-MEL-28
UACC-257 = tested on: UACC-257
M14 = tested on: M14
A498 = tested on: A498
HOP-62 = tested on: HOP-62
NCI-H226 = tested on: NCI-H226
RXF 631 = tested on: RXF 631

Measured: GI50

C/C(=N\NC(=S)N1CCC(N2CCCCC2)CC1)c1ccccn1
2.4 µM: HCT-15
active: HL-60 0.796 µM | CCRF-CEM 0.661 µM | MOLT-4 0.586 µM | NCI-H522 < 0.01 µM | LXFL 529 0.828 µM | DMS-114 0.522 µM | SR 0.519 µM
inactive: HOP-92 2.92 µM | Malme-3M > 100 µM | HCT-116 2.79 µM | TK-10 2.38 µM | PC-3 3.56 µM | EKVX 3.4 µM | RPMI-8226 2.2 µM | MDA-MB-231 1.9 µM | SK-MEL-5 2.66 µM | M19-MEL 3.71 µM | IGROV-1 3.54 µM | SF-295 2.28 µM | DLD-1 39.7 µM | MCF7 2.87 µM | OVCAR-8 3.21 µM | DMS-273 2.81 µM | NCI-H23 3.29 µM | OVCAR-3 2.4 µM | KM12 2.81 µM | HT-29 3.17 µM | XF498 7 µM | NCI/ADR-RES 2.26 µM | 786-0 12.7 µM | SW-620 3.1 µM | COLO 205 2.8 µM | MDA-MB-435 2.4 µM | HCC 2998 11.7 µM | T47D 1.39 µM | K562 1.29 µM | ACHN 2.41 µM | SK-OV-3 4.93 µM | A549 3.15 µM | RXF 393 1.36 µM | UACC-62 3.33 µM | CAKI-1 2.07 µM | HOP-18 3.8 µM | KM-20L2 4.46 µM | MDA-N 2.49 µM | LOX IMVI 2.82 µM | DU-145 3.72 µM | SNB-78 11.5 µM | OVCAR-4 4.73 µM | SNB-19 3.7 µM | Hs-578T 4.72 µM | SK-MEL-2 > 100 µM | NCI-H460 2.73 µM | OVCAR-5 4.11 µM | UO-31 1.9 µM | SNB-75 2.87 µM | SN12C 2.7 µM | SF-268 3.68 µM | U-251 3.8 µM | SF-539 3.11 µM | SK-MEL-28 4.12 µM | UACC-257 2.9 µM | M14 1.87 µM | A498 2.37 µM

COC(=O)c1cc(CNCCc2c[nH]c3ccccc23)on1
> 100 µM: HCT-15
inactive: HOP-92 92.5 µM | Malme-3M > 100 µM | HCT-116 > 100 µM | TK-10 > 100 µM | PC-3 > 100 µM | EKVX > 100 µM | HL-60 > 100 µM | RPMI-8226 > 100 µM | SK-MEL-5 > 100 µM | M19-MEL > 100 µM | IGROV-1 > 100 µM | SF-295 > 91.8 µM | DLD-1 > 100 µM | MCF7 > 100 µM | OVCAR-8 > 100 µM | DMS-273 > 100 µM | NCI-H23 > 100 µM | CCRF-CEM > 100 µM | OVCAR-3 > 100 µM | KM12 > 100 µM | HT-29 > 100 µM | XF498 23.1 µM | NCI/ADR-RES > 100 µM | MOLT-4 > 100 µM | 786-0 33.8 µM | SW-620 > 100 µM | COLO 205 > 100 µM | HOP-62 > 100 µM | HCC 2998 > 95.5 µM | NCI-H226 > 100 µM | T47D > 100 µM | K562 > 100 µM | ACHN > 60.8 µM | RXF 631 > 100 µM | SK-OV-3 > 100 µM | A549 > 100 µM | RXF 393 > 66.8 µM | UACC-62 > 100 µM | CAKI-1 > 78.2 µM | KM-20L2 > 100 µM | MDA-N > 100 µM | LOX IMVI > 100 µM | NCI-H522 29.6 µM | DU-145 > 100 µM | OVCAR-4 > 33.8 µM | SNB-19 > 100 µM | Hs-578T > 100 µM | SK-MEL-2 > 100 µM | NCI-H460 > 58.1 µM | OVCAR-5 > 100 µM | UO-31 > 100 µM | LXFL 529 > 100 µM | SNB-75 > 65 µM | SN12C > 100 µM | SF-268 > 100 µM | U-251 > 100 µM | DMS-114 > 100 µM | SF-539 74.1 µM | SR > 100 µM | SK-MEL-28 > 100 µM | UACC-257 > 100 µM | M14 > 100 µM | A498 > 100 µM
